Test results reported in patent US20040063611A1, “Pharmaceutical preparation” (Merck Patent GmbH, priority 1998, published 2004).

Tests used:
[1] = In-vitro release Test 1 (phosphate buffer pH 7.4); type: physicochemical; details: micronized, particle size between 5 μm and 25 μm (to 95%)
Source text: (§1) In the Federal Register Vol. 62, No. 15, Aug. 14, 1997; page 43535, the Department of Health and Human. Services, Food and Drug Administration, published the facts that the products available on the U.S. market which comprise levothyroxine sodium and are orally administered have stability problems and therefore must be present in an up to […] excess dose and that manufacturers must develop appropriate novel administration forms. The requirements on in-vitro release for levothyroxine Na tablets have furthermore been increased. The monograph draft version of the Pharmacopeial Forum (Pharm. Preview, 1995, 21, 1459-1461) proposes, in addition to the valid Test 1 (phosphate buffer pH 7.4, in 80 minutes >55%) to approve Test 2 (water in 45 minutes >70%).
(§2) With a particle size between 5 μm and 25 μm (to 95%) , however, a release of the active compound takes place in Test 1 to >90% (phosphate buffer) and in Test 2 to >80% (water).

[2] = non-micronized (customarily), cited from earlier work
[3] = In-vitro release Test 2 (water); type: physicochemical; details: micronized, particle size between 5 μm and 25 μm (to 95%)
Source text: as §1, §2

For `N[C@@H](Cc1cc(I)c(Oc2cc(I)c(O)c(I)c2)c(I)c1)C(=O)O` [Levothyroxine sodium, levothyroxine sodium], the “release of the active compound in Test 1” value [1] is listed as greater than 90%, the solubility in ethanol ([2]; ethanol) is listed as “very sparingly soluble” and the solubility in water ([2]; water) is listed as “very sparingly soluble”. For the same compound, the “release of the active compound in Test 2” value [3] was greater than 80%.
